The source made the active and inactive calls. No cut-off for these calls is given here.
Columns and labels:
dengue virus type 2 [1] = test: Antiviral activity against DENV-2 16,681 infected in Vero E6 cells assessed as reduction in virus induced cytopathic effect at 10 uM incubated for 4 days by inverted microscopic analysis; assay type: functional, organism-based; details: time 4.0 day
dengue virus type 2 [2] = test: Antiviral activity against DENV-2 16,681 infected in Vero E6 cells assessed as reduction in viral infection by measuring NS4B positive cells at 10 uM incubated for 4 days by immunofluorescence assay; assay type: functional; design: scale not given: the % may be the effect or the level left; details: time 4 day
[3] = Selectivity index, ratio of CC50 for human A549 cells to EC50 for antiviral activity against DENV-2 16,681 infected in A549 cells; assay type: toxicity, cell-based; details: read-out: Ratio CC50/EC50
dengue virus type 2 [4] = test: Antiviral activity against DENV-2 16,681 infected in Vero E6 cells assessed as reduction in viral infectivity by measuring NS4B-positive cells at 1 uM pretreated with virus for 1 hr followed by compound addition for 1 hr prior to washout and measured after 96 hrs by immunofluorescence analysis; assay type: functional; design: scale not given: the % may be the effect or the level left
[5] = Cytotoxicity against human A549 cells by MTT assay; assay type: toxicity, cell-based
dengue virus type 2 [6] = test: Antiviral activity against DENV-2 16,681 infected in Vero E6 cells assessed as reduction in virus induced cytopathic effect measured after 96 hrs by inverted microscopic analysis; assay type: functional, organism-based; details: Dengue virus, 16,681, Vero C1008, 96 h
dengue virus type 2 [7] = test: Antiviral activity against DENV-2 16,681 infected in Vero E6 cells assessed as reduction in viral infectivity by measuring NS4B-positive cells pretreated with virus for 1 hr followed by compound addition for 1 hr prior to washout and measured after 96 hrs by immunofluorescence analysis; assay type: functional, organism-based; details: Dengue virus, 16,681, Vero C1008
dengue virus type 2 [8] = test: Antiviral activity against DENV-2 16,681 infected in Vero E6 cells assessed as reduction in viral infectivity by measuring NS4B-positive cells incubated for 1 hr followed by washout and subsequent culturing; assay type: functional, organism-based; details: Dengue virus, 16,681, Vero C1008, 1 h
dengue virus type 2 [9] = test: Antiviral activity against DENV-2 16,681 infected in Vero E6 cells assessed as reduction in viral infectivity by measuring NS4B-positive cells at 10 uM pretreated with compound for 1 hr followed by viral infection and washout measured after 96 hrs by immunofluorescence analysis; assay type: functional; design: scale not given: the % may be the effect or the level left
Genome polyprotein = Genome polyprotein (dengue virus type 2, UniProt P29990); test: Inhibition of DENV-2 NS2B/NS3 protease expressed in HEK293 cells cotransfected with CFP-trrg-YFP incubated for 24 hrs by FRET assay; assay type: cell-based
dengue virus type 2 [10] = test: Antiviral activity against DENV-2 16,681 infected in Vero E6 cells assessed as reduction in viral infectivity by measuring NS4B-positive cells at 0.1 uM incubated for 1 hr followed by washout and measured after 96 hrs by immunofluorescence analysis; assay type: functional; design: scale not given: the % may be the effect or the level left
[11] = Cytotoxicity against african green monkey Vero E6 cells by MTT assay; assay type: toxicity, cell-based, Vero C1008; details: chlorocebus sabaeus
dengue virus type 2 [12] = test: Antiviral activity against DENV-2 16,681 infected in A549 cells assessed as reduction in virus induced cytopathic effect measured after 96 hrs by inverted microscopic analysis; assay type: functional, organism-based; details: Dengue virus, 16,681, A549, 96 h
dengue virus type 2 [13] = test: Antiviral activity against DENV-2 16,681 infected in Vero E6 cells assessed as reduction in viral infectivity by measuring NS4B-positive cells incubated for 1 hr followed by washout and measured after 96 hrs by immunofluorescence analysis; assay type: functional, organism-based; details: Dengue virus, 16,681, Vero C1008
[14] = Selectivity index, ratio of CC50 for african green monkey Vero E6 cells to EC50 for antiviral activity against DENV-2 16,681 infected in Vero E6 cells; assay type: toxicity, cell-based; details: read-out: Ratio CC50/EC50
dengue virus type 2 [15] = test: Antiviral activity against DENV-2 16,681 infected in Vero E6 cells assessed as reduction in viral infectivity by measuring NS4B-positive cells pretreated with compound for 1 hr followed by viral infection and washout measured after 96 hrs by immunofluorescence analysis; assay type: functional, organism-based; details: Dengue virus, 16,681, Vero C1008

Structure (SMILES)	Activity (dengue virus type 2 [1])	Activity (dengue virus type 2 [2]) [%]	selectivity ratio [3]	Activity (dengue virus type 2 [4])	CC50 [5] [nM]	EC50 (dengue virus type 2 [6]) [nM]	EC50 (dengue virus type 2 [7]) [nM]	EC50 (dengue virus type 2 [8]) [nM]	Activity (dengue virus type 2 [9]) [%]	IC50 (Genome polyprotein) [nM]	Activity (dengue virus type 2 [10]) [%]	CC50 [11] [nM]	EC50 (dengue virus type 2 [12]) [nM]	EC50 (dengue virus type 2 [13]) [nM]	selectivity ratio [14]	EC50 (dengue virus type 2 [15]) [nM]
CN1C[C@H]2C[C@H](Cn3c2cccc3=S)C1=S	Active	60	–	–	–	–	–	–	–	–	–	–	–	–	–	–
CN1C[C@H]2C[C@H](Cn3c2cccc3=O)C1=S	Active	64.9	–	–	–	–	–	–	–	–	–	–	–	–	–	–
CN1C[C@@H]2C[C@H](C1=S)c1cccc(=S)n1C2	Active	61	–	–	–	–	–	–	–	–	–	–	–	–	–	–
CN1C[C@@H]2C[C@H](C1=S)c1cccc(=O)n1C2	Active	95	> 25000	>60%	> 50000	5	670	100	<40	2760	>50	> 50000	2	20	> 10000	> 10000
CN1C[C@@H]2C[C@H](C1)c1cccc(=S)n1C2	Active	88.7	> 23.7	inactive	> 50000	940	4080	1020	<40	13500	>50	> 50000	2110	110	> 53.2	> 10000

From ChEMBL document CHEMBL5579796, “Inhibition of dengue viruses by N-methylcytisine thio derivatives through targeting viral envelope protein and NS2B-NS3 protease” (Bioorg Med Chem Lett, 2024)
